Results reported in patent US20250154525A1, “PLANT VIRUS MOVEMENT PROTEINS AND METHODS OF USING SAME” (Molecular Transfer, Inc., priority 2016, published 2025).

Key:
[1] = tested on: HeLa Cells; assay: GFP transfection with DOTMA/SEQ ID NO: 72 (fusogenic peptide)/peptide compared with Lipofectamine 2000; format: cell-based
Outline: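 DOTMA/DOPE (1:1 molar) lipid mixed with polyarginine- or polylysine-tagged cell-surface-ligand peptide, complexed 10 min with EF1alpha eGFP plasmid at 10 μg/mL in OptiMEM, fusogenic peptide at 0.1 mg/mL final; HeLa cells ~70% confluent given 0.01 mL complex. GFP read by fluorescence plate reader and microscopy (% cells transfected) after 42 h at 37° C; Lipofectamine 2000 as comparator.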

[2] = tested on: NL-1 iPS Cells; assay: GFP plasmid transfection with DOTMA/DOPE plus surface ligand peptide, fluorescent plate reader (Example 1); format: cell-based; conditions: DOTMA/DOPE + peptide linked to R12 or K16; EF1Alpha eGFP plasmid; 42 hours
[3] = tested on: HuVec Cells; assay: as above; format: cell-based; conditions: DOTMA/DOPE + peptide linked to R12 or K16; EF1Alpha eGFP plasmid; 42 hours
Outline: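 HuVEC cells in 96 well plates at 70% confluence were transfected with EF1Alpha eGFP plasmid using a 1:1 molar DOTMA/DOPE lipid mixed with a surface ligand peptide carrying a covalently attached nucleic acid binding moiety. Complexes formed for 10 minutes, 0.01 mL went to each well, cells were incubated 42 hours at 37° C., and fluorescence was read on a plate reader.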

[4] = tested on: Human Fibroblast Cells; assay: as above; format: cell-based; conditions: DOTMA/DOPE + peptide linked to R12 or K16; EF1Alpha eGFP plasmid; 42 hours
Outline: (§1)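 DOTMA/DOPE (1:1 molar) plus peptide bearing a poly-Arg or poly-Lys tag was complexed 10 min with EF1alpha eGFP plasmid in OptiMEM, then added to 70%-confluent cells (0.01 mL fibroblasts; 0.02 mL C2C12, Jurkat). After 42 h at 37 °C, GFP was read by plate reader and compared with DOTMA without ligand.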

[5] = tested on: Jurkat Cells; assay: as above; format: cell-based; conditions: DOTMA/DOPE + peptide linked to R12 or K16; EF1Alpha eGFP plasmid; 42 hours
Outline: as §1

[6] = tested on: HeLa Cells; assay: as above; format: cell-based; conditions: DOTMA/DOPE + peptide linked to R12 or K16; EF1Alpha eGFP plasmid; 42 hours
[7] = tested on: some examined cell types; assay: Summary of Example 1: transfection expression and % cells transfected over the no peptide control; format: cell-based; conditions: on some examined cell types
Outline: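 Cells at 70% confluence received DNA complexes of EF1Alpha eGFP plasmid with DOTMA/DOPE (1:1) plus oligo-Arg- or oligo-Lys-tagged peptide ligands, formed 10 min at room temperature. After 42 h at 37 °C, 5% CO2, GFP read by plate reader and % transfected cells judged microscopically, relative to lipid without peptide.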

[8] = tested on: C2C12 Cells; assay: GFP plasmid transfection with DOTMA/DOPE plus surface ligand peptide, fluorescent plate reader (Example 1); format: cell-based, mouse; conditions: DOTMA/DOPE + peptide linked to R12 or K16; EF1Alpha eGFP plasmid; 42 hours
Outline: as §1

[9] = 0.1 μL of DOTMA/SEQ ID NO: 72/Peptide in well of a 96 well plate
[10] = 0.2 μL of DOTMA/SEQ ID NO: 72/Peptide in well of a 96 well plate
[11] = 0.3 μL of DOTMA/SEQ ID NO: 72/Peptide in well of a 96 well plate
[12] = 0.4 μL of DOTMA/SEQ ID NO: 72/Peptide in well of a 96 well plate

Row | Substance | Relative Fluorescence DOTMA/SEQ ID NO: 72/Peptide, HeLa Cells (RF) [1, 9] | Relative Fluorescence DOTMA/SEQ ID NO: 72/Peptide, HeLa Cells (RF) [1, 10] | Relative Fluorescence DOTMA/SEQ ID NO: 72/Peptide, HeLa Cells (RF) [1, 11] | Relative Fluorescence DOTMA/SEQ ID NO: 72/Peptide, HeLa Cells (RF) [1, 12] | Relative Fluorescence of Transfection of NL-1 iPS Cells (RF) [2] | Relative Fluorescence of Transfection of HuVec Cells (RF) [3] | Relative Fluorescence of Transfection of Human Fibroblast Cells (RF) [4] | Relative Fluorescence of Transfection of Jurkat Cells (RF) [5] | Relative Fluorescence of Transfection of HeLa Cells (RF) [6] | transfection expression and % cells transfected over the no peptide control [7] | Relative Fluorescence of Transfection of C2C12 Cells (RF) [8]
1 | 503 (TAGSCLRKFSTMRRRRRRRRRRRR) [compound 503] | 12827 | 20006 | 17101 | 16206 | 19014 | 12123 | 13085 | 9411 | 25368 | increased transfection expression and the % cells transfected | 3973
2 | 326 (RLVSYSGVLFFLK) [compound 326] | 6887 | 9487 | 10330 | 9227 | 9239 | 4932 | 3070 | 3018 | 18946 | increased transfection expression and the % cells transfected | 8553
3 | 218 (SPPRRARVT) [compound 218] | 12686 | 13103 | 10151 | 10081 | 17049 | 14827 | 11230 | 21451 | 11179 | increased transfection expression and the % cells transfected | 3706
4 | 355 (FRHRNRKGY) [compound 355] | 18362 | 27990 | 22367 | 18289 | 7910 | 14810 | 6821 | 8132 | 32628 | increased transfection expression and the % cells transfected | 1900
5 | 341 (LRAHAVDVNG) [compound 341] | 6406 | 7469 | 8020 | 7546 | 20446 | 15906 | 2284 | 18042 | 4108 | increased transfection expression and the % cells transfected | 2141
